Drawing on patent publication US12528802B2, “Heterocyclic compound” (Takeda Pharmaceutical Company Limited, priority 2019, dated 2026), this text covers inhibition for 28 compounds.

The assay has as its target T1, glucosylceramide synthase (Homo sapiens, UniProt Q16739).
T1 construct: made in house; host or cells: Expi293F cells (transient expression, pcDNA3.3-TOPO vector); microsome fraction used as enzyme source
T1 sequence (Q16739 1-394): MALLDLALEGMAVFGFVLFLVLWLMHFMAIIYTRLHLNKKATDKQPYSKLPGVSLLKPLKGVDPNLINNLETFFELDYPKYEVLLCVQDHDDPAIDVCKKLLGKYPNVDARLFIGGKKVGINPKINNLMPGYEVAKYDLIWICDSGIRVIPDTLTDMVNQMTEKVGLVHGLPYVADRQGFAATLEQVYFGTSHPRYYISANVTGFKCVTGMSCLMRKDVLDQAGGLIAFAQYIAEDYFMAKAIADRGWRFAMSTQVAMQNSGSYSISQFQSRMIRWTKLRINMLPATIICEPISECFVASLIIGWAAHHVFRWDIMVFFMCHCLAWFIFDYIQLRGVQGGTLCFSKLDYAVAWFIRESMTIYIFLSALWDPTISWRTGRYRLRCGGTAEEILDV
Description: Glucosylceramide synthase (GCS) enzyme assay, microsome fraction, C8 glucosylceramide quantified by Rapidfire MS/MS. Particulars: test compound 10 μM; 1.7 μM UDP-glucose, 3 μM C8 ceramide; room temperature 60 min; read-out: GCS enzyme inhibitory rate at 10 μM (%) (% of control). The format is biochemical. An outline of the steps:
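Test compound, 10 μM final, was run against human GCS from transfected Expi293F microsome fractions, using substrate solution of 6 μM C8 ceramide (in DOPC liposomes) plus 3.4 μM UDP-glucose, pH 7.5 Tris buffer, 60 min, room temperature. Product C8 glucosylceramide measured by Rapidfire MS/MS against an internal standard, % inhibition referenced to no-enzyme and DMSO wells.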
As to `Fc1ccc(N2Cc3ccnc(-c4ccc(F)cc4OCC(F)(F)F)c3C2)cc1` [Example 111, 2-(4-fluorophenyl)-4-[4-fluoro-2-(2,2,2-trifluoroethoxy)phenyl]-2,3-dihydro-1H-pyrrolo[3,4-c]pyridine], the inhibition at 10 µM was 92%.

With `N#CCOc1cc(F)ccc1-c1nccc2c1CN(c1ccc(OC(F)F)nc1)C2=O` [Example 112, (2-{2-[6-(difluoromethoxy)pyridin-3-yl]-1-oxo-2,3-dihydro-1H-pyrrolo[3,4-c]pyridin-4-yl}-5-fluorophenoxy)acetonitrile], the inhibition at 10 µM amounted to 98%.

In the case of `COCCOc1cc(F)ccc1-c1nccc2c1CN(c1ccc(OC(F)F)nc1)C2=O` [Example 113, 2-[6-(difluoromethoxy)pyridin-3-yl]-4-[4-fluoro-2-(2-methoxyethoxy)phenyl]-2,3-dihydro-1H-pyrrolo[3,4-c]pyridin-1-one], the inhibition at 10 µM was determined as 66%.

Take `O=C1c2ccnc(-c3ccc(F)cc3OCc3ccccc3)c2CN1c1ccc(OC(F)F)cc1` [Example 114, 4-[2-(benzyloxy)-4-fluorophenyl]-2-[4-(difluoromethoxy)phenyl]-2,3-dihydro-1H-pyrrolo[3,4-c]pyridin-1-one]: the inhibition at 10 µM was found to be 99%.

With `O=C1CC2=C(CN(c3ccc(F)cc3)C2=O)N(c2ccc(F)cc2OCC(F)(F)F)N1` [Example 115, 6-(4-fluorophenyl)-1-[4-fluoro-2-(2,2,2-trifluoroethoxy)phenyl]-6,7-dihydro-1H-pyrrolo[3,4-c]pyridazine-3,5(2H,4H)-dione], the inhibition at 10 µM was 65%.

On to `O=C(c1ccc(-c2nccc3c2CN(c2ccc(OC(F)F)nc2)C3=O)c(OCC(F)(F)F)c1)N1CCC1` [Example 118, 4-[4-(azetidine-1-carbonyl)-2-(2,2,2-trifluoroethoxy)phenyl]-2-[6-(difluoromethoxy)pyridin-3-yl]-2,3-dihydro-1H-pyrrolo[3,4-c]pyridin-1-one], for which the inhibition at 10 µM stood at 96%.

Regarding `COc1cc(C(=O)N2CCC2)ccc1-c1nccc2c1CN(c1ccc(F)cc1)C2=O` [Example 120, 4-[4-(azetidine-1-carbonyl)-2-methoxyphenyl]-2-(4-fluorophenyl)-2,3-dihydro-1H-pyrrolo[3,4-c]pyridin-1-one], the inhibition at 10 µM was found to be 61%.

As to `COc1cc(C(=O)N2CCC2)ccc1-c1nccc2c1CN(c1ccc(OC(F)F)cc1)C2=O` [Example 122, 4-[4-(azetidine-1-carbonyl)-2-methoxyphenyl]-2-[4-(difluoromethoxy)phenyl]-2,3-dihydro-1H-pyrrolo[3,4-c]pyridin-1-one], the inhibition at 10 µM stood at 95%.

As for `COc1cc(C(=O)N2CCC2)ccc1-c1nccc2c1CN(c1ccc(OC(F)F)nc1)C2=O` [Example 123, 4-[4-(azetidine-1-carbonyl)-2-methoxyphenyl]-2-[6-(difluoromethoxy)pyridin-3-yl]-2,3-dihydro-1H-pyrrolo[3,4-c]pyridin-1-one], the inhibition at 10 µM is 85%.

For `O=C(c1ccc(-c2nccc3c2CN(c2ccc(OC(F)F)cc2)C3=O)c(OC(F)F)c1)N1CCC1` [Example 124, 4-[4-(azetidine-1-carbonyl)-2-(difluoromethoxy)phenyl]-2-[4-(difluoromethoxy)phenyl]-2,3-dihydro-1H-pyrrolo[3,4-c]pyridin-1-one], the inhibition at 10 µM is 98%.

Take `O=C(c1ccc(-c2nccc3c2CN(c2ccc(OC(F)F)nc2)C3=O)c(OC(F)F)c1)N1CCC1` [Example 125, 4-[4-(azetidine-1-carbonyl)-2-(difluoromethoxy)phenyl]-2-[6-(difluoromethoxy)pyridin-3-yl]-2,3-dihydro-1H-pyrrolo[3,4-c]pyridin-1-one]: the inhibition at 10 µM was determined as 94%.

`O=C1c2ccnc(-c3ccc(F)cc3OCC3COC3)c2CN1c1ccc(OC(F)F)cc1` [Example 126, 2-[4-(difluoromethoxy)phenyl]-4-{4-fluoro-2-[(oxetan-3-yl)methoxy]phenyl}-2,3-dihydro-1H-pyrrolo[3,4-c]pyridin-1-one]: the inhibition at 10 µM stood at 97%.

For `O=C1c2ccnc(-c3ccc(F)cc3OCC3(F)COC3)c2CN1c1ccc(OC(F)F)cc1` [Example 127, 2-[4-(difluoromethoxy)phenyl]-4-{4-fluoro-2-[(3-fluorooxetan-3-yl)methoxy]phenyl}-2,3-dihydro-1H-pyrrolo[3,4-c]pyridin-1-one], the inhibition at 10 µM was 100%.

Consider `O=C1c2ccnc(-c3ccc(F)cc3OCC3(F)CC3)c2CN1c1ccc(OC(F)F)cc1` [Example 128, 2-[4-(difluoromethoxy)phenyl]-4-{4-fluoro-2-[(1-fluorocyclopropyl)methoxy]phenyl}-2,3-dihydro-1H-pyrrolo[3,4-c]pyridin-1-one], for which the inhibition at 10 µM was determined as 99%.

As to `O=C1c2ccnc(-c3ccc(F)cc3OCC3CC3)c2CN1c1ccc(OC(F)F)cc1` [Example 129, 4-[2-(cyclopropylmethoxy)-4-fluorophenyl]-2-[4-(difluoromethoxy)phenyl]-2,3-dihydro-1H-pyrrolo[3,4-c]pyridin-1-one], the inhibition at 10 µM turned out to be 99%.

Regarding `O=C1c2ccnc(-c3ccc(F)cc3OCC(F)(F)F)c2CN1c1ccc(OCC(F)F)nc1` [Example 131, 2-[6-(2,2-difluoroethoxy)pyridin-3-yl]-4-[4-fluoro-2-(2,2,2-trifiuoroethoxy)phenyl]-2,3-dihydro-1H-pyrrolo[3,4-c]pyridin-1-one], the inhibition at 10 µM amounted to 87%.

Consider `O=C1c2ccnc(-c3ccc(F)cc3OCC(F)(F)F)c2CN1c1ccc(S(=O)(=O)C(F)F)cc1` [Example 139, 2-[4-(difluoromethanesulfonyl)phenyl]-4-[4-fluoro-2-(2,2,2-trifluoroethoxy)phenyl]-2,3-dihydro-1H-pyrrolo[3,4-c]pyridin-1-one], for which the inhibition at 10 µM was 96%.

Consider `CS(=O)(=O)c1ccc(N2Cc3ccnc(-c4ccc(F)cc4OCC(F)(F)F)c3C2)cc1` [Example 140, 4-[4-fluoro-2-(2,2,2-trifluoroethoxy)phenyl]-2-[4-(methanesulfonyl)phenyl]-2,3-dihydro-1H-pyrrolo[3,4-c]pyridine], for which the inhibition at 10 µM was 86%.

Regarding `CN(C)C(=O)c1ccc(N2Cc3ccnc(-c4ccc(F)cc4OCC(F)(F)F)c3C2)cc1` [Example 141, 4-{4-[4-fluoro-2-(2,2,2-trifluoroethoxy)phenyl]-1,3-dihydro-2H-pyrrolo[3,4-c]pyridin-2-yl}-N,N-dimethylbenzamide], the inhibition at 10 µM was 90%.

With `COc1cccc(F)c1-c1nccc2c1CN(c1ccc(F)cc1)C2=O` [Example 142, 4-(2-fluoro-6-methoxyphenyl)-2-(4-fluorophenyl)-2,3-dihydro-1H-pyrrolo[3,4-c]pyridin-1-one], the inhibition at 10 µM was 77%.

Take `O=C1C2=C(CN1c1ccc(F)cc1)C(c1ccc(F)cc1OCC(F)(F)F)=NCCN2` [Example 145, 7-(4-fluorophenyl)-5-[4-fluoro-2-(2,2,2-trifluoroethoxy)phenyl]-2,3,6,7-tetrahydropyrrolo[3,4-e][1,4]diazepin-8(1H)-one]: the inhibition at 10 µM was 63%.

Consider `O=C1c2[nH]nc(-c3ccc(F)cc3OCC(F)(F)F)c2CN1c1ccc(F)cc1` [Example 146, 5-(4-fluorophenyl)-3-[4-fluoro-2-(2,2,2-trifluoroethoxy)phenyl]-4,5-dihydropyrrolo[3,4-c]pyrazol-6(1H)-one], for which the inhibition at 10 µM worked out at 55%.

Turning to `COCc1ccc(N2Cc3c(ccnc3-c3ccc(F)cc3OCC(F)(F)F)C2=O)cc1` [Example 147, 4-[4-fluoro-2-(2,2,2-trifluoroethoxy)phenyl]-2-[4-(methoxymethyl)phenyl]-2,3-dihydro-1H-pyrrolo[3,4-c]pyridin-1-one], the inhibition at 10 µM amounted to 94%.

As for `O=C1c2ccc(=O)n(-c3ccccc3OCC(F)(F)F)c2CN1c1ccc(OC(F)(F)F)cc1` [Example 149, 1-[2-(2,2,2-trifluoroethoxy)phenyl]-6-[4-(trifluoromethoxy)phenyl]-6,7-dihydro-1H-pyrrolo[3,4-b]pyridine-2,5-dione], the inhibition at 10 µM was found to be 99%.

Regarding `O=C1c2ccnc(-c3ccc(F)cc3OCC(F)(F)F)c2CN1c1cnc(OC(F)F)nc1` [Example 151, 2-[2-(difluoromethoxy)pyrimidin-5-yl]-4-[4-fluoro-2-(2,2,2-trifluoroethoxy)phenyl]-2,3-dihydro-1H-pyrrolo[3,4-c]pyridin-1-one], the inhibition at 10 µM stood at 94%.

Regarding `O=C(c1ccc(N2Cc3c(ccnc3-c3ccc(F)cc3OCC(F)(F)F)C2=O)cc1)N1CCOCC1` [Example 152, 4-[4-fluoro-2-(2,2,2-trifluoroethoxy)phenyl]-2-[4-(morpholine-4-carbonyl)phenyl]-2,3-dihydro-1H-pyrrolo[3,4-c]pyridin-1-one], the inhibition at 10 µM was found to be 90%.

As for `O=C1c2ccnc(-c3ccc(F)cc3OCC(F)(F)F)c2CN1c1cnn(CC2CC2)c1` [Example 153, 2-[1-(cyclopropylmethyl)-1H-pyrazol-4-yl]-4-[4-fluoro-2-(2,2,2-trifluoroethoxy)phenyl]-2,3-dihydro-1H-pyrrolo[3,4-c]pyridin-1-one], the inhibition at 10 µM was 98%.

As for `COCCn1cc(N2Cc3c(ccnc3-c3ccc(F)cc3OCC(F)(F)F)C2=O)cn1` [Example 154, 4-[4-fluoro-2-(2,2,2-trifluoroethoxy)phenyl]-2-[1-(2-methoxyethyl)-1H-pyrazol-4-yl]-2,3-dihydro-1H-pyrrolo[3,4-c]pyridin-1-one], the inhibition at 10 µM stood at 85%.
